These results are taken from publication PMC5986654, “Combined HAT/EZH2 modulation leads to cancer-selective cell death” (Oncotarget, 2018).

By IC50 is commonly meant the point on the concentration scale where inhibition reaches its midpoint. Higher therefore signals lower potency.

Assay [1] addresses T1, CYP2C19 (Homo sapiens, UniProt P33261).
T1 construct: from tissue; host or cells: human liver microsomes
The assay is described as follows: Cytochrome P450 inhibition, CYP2C19. In kind it is in vitro ADME. The note with it: human liver microsomes, probe mephenytoin. As for the experimental part:
This provided a dose of 2 mg free base material/kg when Cytochrome p450 inhibition (5 isoform iC50 administered iv in a 5 mL/kg dosing volume. determination) mouse terminal ip pK study ADME-Tox Cytochrome P450 inhibition of Compound MC2884 was given ip at a dose of 2 mg/kg MC2884 using human liver microsomes as an estimation to a group of 24 normally fed male CD1 mice in a 10 mL/ of in vitro metabolism. kg injection volume. Terminal blood samples (> 230 μL) MC2884 (0.1 μM–25 μM) was incubated with were taken under CO2 from groups of 3 mice at each of 8 human liver microsomes and NADPH in the presence time-points post dose (0.083, 0.25, 0.5, 1, 2, 4, 8 and 24 h) of a cytochrome P450 isoform-specific probe substrate. and placed into heparinized tubes. […]
All samples were stored at −20° C measuring the formation of a fluorescent metabolite. […]
Cyp2C19 inhibition (0.1 mg/mL) and NADPH (1 mM) in the presence of the probe substrate midazolam (2.5 μM) for 5 min at Six test compound samples at concentrations 37° C. […] For the CYP1A incubations, the reactions microsomes (0.5 mg/mL) and NADPH (1 mM) in the were terminated by methanol, and the formation of the presence of the probe substrate mephenytoin (25 μM) metabolite, resorufin, was monitored by fluorescence for 60 min at 37° C. […]
In general terms: Liver microsomes are vesicles of endoplasmic reticulum, rich in cytochrome P450 enzymes.

The test system of assay [2] is HCT116 colon carcinoma. The assay is described as follows: Immunohistochemistry and TUNEL of HCT116 xenograft tumors. The note with it: end of treatment, 10 mg/Kg. The assay is classed as in vivo, mice. As for the experimental part: HCT116 cell line was grown in McCoy’s medium, supplemented with 10% inactivated FBS, 2 mM glutamine and standard concentration of antibiotics. 7- to 8-week-old male CD1 nude athymic mice were purchased from Charles River and under pathogen-free conditions in accordance with European Directives no. 2010/63 and with Italian D.L. 26/2014. Mice were injected subcutaneously into the right flank with 4 × 10^6 of HCT116 cells; tumor volume (mm^3) was evaluated three times a week by caliper using the formula Dmax x dmin^^2/2, where ‘d’ and ‘D’ are the shortest and the longest diameters, respectively. For all experiments, mice were randomly divided (n = 7) and intra-peritoneal injected by day five every day with: vehicle sesame oil/DMSO 6%; MC2884 10 mg/Kg in sesame oil/DMSO 6%. Mice were sacrificed after 20 days of drug treatment and tumors explanted for immunohistochemical analyses. For HCT116-DKO colon cancer, 6 × 10^6 cells were injected.
The biopsy specimens were fixed in 10% buffered-formalin and paraffin-embedded. Sections of […] were stained with haematoxylin-eosin, and haematoxylin-van Gieson. For immunohistochemistry, specimens were incubated in a microwave oven for 15 min in 10 mM buffered citrate pH 6.0 followed by the immunohistochemical procedure for Ki67 (Santa Cruz Biotechnology Inc., CA, USA), H3K27me3, H3K9/14ac (Diagenode). The conventional avidin-biotin complex procedure was applied according to manufacturer’s protocol (Dako Carpinteria, CA, USA) and incubated with secondary antibody. […] Slides were cover-slipped with a xylene-based mounting medium. Staining was scored as percentage of positive nuclei per high power field 10 × 40. Negative controls for each tissue section were performed omitting the primary antibody. Positive controls included in each experiment consisted of tissue previously shown to express the antigen of interest. TUNEL reaction was performed using the peroxidase-based Apoptag kit (Oncor, Gaithersburg, MD, US). TUNEL positive cells were detected with DAB and H2O2 according to the supplier’s instructions. The experiments were repeated on different sections for each specimen (two to four). For all immunohistochemical markers, 100 random fields (250×) per section were analysed (12.5 mm^2). Mann–Whitney and Wilcoxon tests were used to assess the relationship between ordinal data. Two-tailed P value was considered significant when ≤ 0.05. SPSS software (version 10.00, SPSS, Chicago, IL, USA) was used for statistical analysis.

[3] abbreviates: scored as percentage of positive nuclei.

T1 sequence (P33261 whole entry): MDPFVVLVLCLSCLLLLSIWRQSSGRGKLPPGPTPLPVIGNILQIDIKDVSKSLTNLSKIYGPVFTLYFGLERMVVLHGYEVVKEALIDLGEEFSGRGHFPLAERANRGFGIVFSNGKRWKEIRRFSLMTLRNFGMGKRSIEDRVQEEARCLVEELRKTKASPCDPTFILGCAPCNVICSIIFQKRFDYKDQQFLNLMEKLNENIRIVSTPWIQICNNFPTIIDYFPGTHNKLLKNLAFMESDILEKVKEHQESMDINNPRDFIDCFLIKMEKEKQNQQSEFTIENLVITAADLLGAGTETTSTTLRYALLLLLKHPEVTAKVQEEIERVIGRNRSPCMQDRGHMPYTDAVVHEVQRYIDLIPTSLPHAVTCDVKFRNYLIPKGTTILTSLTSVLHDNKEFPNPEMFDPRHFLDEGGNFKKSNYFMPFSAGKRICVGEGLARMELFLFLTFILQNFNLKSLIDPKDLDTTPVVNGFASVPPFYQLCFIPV

On to `O=C1/C(=C/c2cccc(Br)c2)CN(Cc2ccccc2)C/C1=C\c1cccc(Br)c1` [MC2884], for which the IC50 in assay [1] is over 25 µM. Also, in assay [2], the “apoptotic index (TUNEL)” value came out at 35±4. Also, in assay [2] (setting [3]), the “H3 K9/14ac” value came to 5±0.2, the “H3 K27me3” value amounted to 19±2 and the “proliferation index (Ki67)” value was 6±0.5.
